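Compound exposure: 48 hours, 5 concentrations, 96-well plates. GI50 marks 50% less growth. TGI: concentration producing complete growth inhibition.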
Experiments:
Test in all cases: NCI tumour cell line growth inhibition, 48 h
[1] = system: NCI-H226 lung
[2] = system: NCI-H23 lung
[3] = system: NCI-H460 lung
[4] = system: NCI-H522 lung
[5] = system: NCI/ADR-RES ovarian
[6] = system: OVCAR-3 ovarian
[7] = system: OVCAR-4 ovarian
[8] = system: OVCAR-5 ovarian
[9] = system: OVCAR-8 ovarian
[10] = system: PC-3 prostate
[11] = system: RPMI-8226 leukemia
[12] = system: RXF 393 renal
[13] = system: SF-268 CNS
[14] = system: SF-295 CNS
[15] = system: SF-539 CNS
[16] = system: SK-MEL-2 melanoma
[17] = system: SK-MEL-28 melanoma
[18] = system: SK-MEL-5 melanoma
[19] = system: SK-OV-3 ovarian
[20] = system: SN12C renal
[21] = system: SNB-19 CNS
[22] = system: SR leukemia
[23] = system: SW-620 colon
[24] = system: T-47D breast
[25] = system: TK-10 renal
[26] = system: U251 CNS
[27] = system: UACC-257 melanoma
[28] = system: UACC-62 melanoma
[29] = system: UO-31 renal

**Q.** With Nc1c(O)c(S(=O)(=O)O)c(O)c2c1C(=O)c1ccccc1C2=O as the molecule, how does the TGI [1] read?
**A.** The TGI was > 100 µM.

**Q.** And the GI50 [2]?
**A.** Its GI50 is 2.82 µM.

**Q.** What about the TGI [2] of the same molecule?
**A.** Its TGI is 9.88 µM.

**Q.** And the GI50 [3]?
**A.** Its GI50 is 2.86 µM.

**Q.** What about the TGI [3] of the same molecule?
**A.** The TGI was 22 µM.

**Q.** And the GI50 [4]?
**A.** Its GI50 is 2.68 µM.

**Q.** And the TGI [4]?
**A.** The TGI was 9.17 µM.

**Q.** And the GI50 [5]?
**A.** The GI50 was 2.99 µM.

**Q.** What about the TGI [5] of the same molecule?
**A.** The TGI was 13.9 µM.

**Q.** And the GI50 [6]?
**A.** Its GI50 is 2.94 µM.

**Q.** What about the TGI [6] of the same molecule?
**A.** Its TGI is 14.5 µM.

**Q.** What about the GI50 [7] of the same molecule?
**A.** The GI50 was 3.06 µM.

**Q.** What about the TGI [7] of the same molecule?
**A.** Its TGI is 20.8 µM.

**Q.** And the GI50 [8]?
**A.** The GI50 was 3.22 µM.

**Q.** And the TGI [8]?
**A.** Its TGI is 32.5 µM.

**Q.** And the GI50 [9]?
**A.** Its GI50 is 2.98 µM.

**Q.** And the TGI [9]?
**A.** Its TGI is 13.4 µM.

**Q.** And the GI50 [10]?
**A.** Its GI50 is 2.32 µM.

**Q.** What about the TGI [10] of the same molecule?
**A.** The TGI was 7.87 µM.

**Q.** And the GI50 [11]?
**A.** Its GI50 is 2.53 µM.

**Q.** What about the TGI [11] of the same molecule?
**A.** Its TGI is 7.77 µM.

**Q.** What about the GI50 [12] of the same molecule?
**A.** The GI50 was 3.37 µM.

**Q.** What about the TGI [12] of the same molecule?
**A.** The TGI was > 100 µM.

**Q.** What about the GI50 [13] of the same molecule?
**A.** Its GI50 is 3.44 µM.

**Q.** What about the TGI [13] of the same molecule?
**A.** The TGI was > 100 µM.

**Q.** And the GI50 [14]?
**A.** Its GI50 is 2.32 µM.

**Q.** And the TGI [14]?
**A.** Its TGI is 7.27 µM.

**Q.** What about the GI50 [15] of the same molecule?
**A.** Its GI50 is 6.36 µM.

**Q.** What about the TGI [15] of the same molecule?
**A.** The TGI was 30.6 µM.

**Q.** What about the GI50 [16] of the same molecule?
**A.** The GI50 was 2.25 µM.

**Q.** What about the TGI [16] of the same molecule?
**A.** Its TGI is 6.21 µM.

**Q.** What about the GI50 [17] of the same molecule?
**A.** Its GI50 is 4.09 µM.

**Q.** And the TGI [17]?
**A.** Its TGI is > 100 µM.

**Q.** And the GI50 [18]?
**A.** The GI50 was 1.97 µM.

**Q.** And the TGI [18]?
**A.** The TGI was 4.07 µM.

**Q.** What about the GI50 [19] of the same molecule?
**A.** The GI50 was 1.98 µM.

**Q.** What about the TGI [19] of the same molecule?
**A.** The TGI was 5.36 µM.

**Q.** And the GI50 [20]?
**A.** The GI50 was 3.29 µM.

**Q.** And the TGI [20]?
**A.** Its TGI is 11.6 µM.

**Q.** And the GI50 [21]?
**A.** Its GI50 is 3.8 µM.

**Q.** And the TGI [21]?
**A.** The TGI was 52.4 µM.

**Q.** What about the GI50 [22] of the same molecule?
**A.** Its GI50 is 2.03 µM.

**Q.** And the TGI [22]?
**A.** Its TGI is 7.17 µM.

**Q.** What about the GI50 [23] of the same molecule?
**A.** The GI50 was 3.24 µM.

**Q.** And the TGI [23]?
**A.** The TGI was > 100 µM.

**Q.** And the GI50 [24]?
**A.** Its GI50 is 2.36 µM.

**Q.** What about the TGI [24] of the same molecule?
**A.** The TGI was 7.37 µM.

**Q.** And the GI50 [25]?
**A.** The GI50 was 2.91 µM.

**Q.** And the TGI [25]?
**A.** Its TGI is 9.73 µM.

**Q.** And the GI50 [26]?
**A.** The GI50 was 3.09 µM.

**Q.** What about the TGI [26] of the same molecule?
**A.** The TGI was 11.1 µM.

**Q.** And the GI50 [27]?
**A.** Its GI50 is 2.38 µM.

**Q.** And the TGI [27]?
**A.** The TGI was 6.33 µM.

**Q.** What about the GI50 [28] of the same molecule?
**A.** Its GI50 is 3.21 µM.

**Q.** What about the TGI [28] of the same molecule?
**A.** Its TGI is 65.6 µM.

**Q.** And the GI50 [29]?
**A.** Its GI50 is 2.47 µM.

**Q.** And the TGI [29]?
**A.** The TGI was 9.13 µM.
